A word on the EC50: it is the concentration needed to bring the measured effect to its halfway point.

T1 sequence (Q14833 33-912): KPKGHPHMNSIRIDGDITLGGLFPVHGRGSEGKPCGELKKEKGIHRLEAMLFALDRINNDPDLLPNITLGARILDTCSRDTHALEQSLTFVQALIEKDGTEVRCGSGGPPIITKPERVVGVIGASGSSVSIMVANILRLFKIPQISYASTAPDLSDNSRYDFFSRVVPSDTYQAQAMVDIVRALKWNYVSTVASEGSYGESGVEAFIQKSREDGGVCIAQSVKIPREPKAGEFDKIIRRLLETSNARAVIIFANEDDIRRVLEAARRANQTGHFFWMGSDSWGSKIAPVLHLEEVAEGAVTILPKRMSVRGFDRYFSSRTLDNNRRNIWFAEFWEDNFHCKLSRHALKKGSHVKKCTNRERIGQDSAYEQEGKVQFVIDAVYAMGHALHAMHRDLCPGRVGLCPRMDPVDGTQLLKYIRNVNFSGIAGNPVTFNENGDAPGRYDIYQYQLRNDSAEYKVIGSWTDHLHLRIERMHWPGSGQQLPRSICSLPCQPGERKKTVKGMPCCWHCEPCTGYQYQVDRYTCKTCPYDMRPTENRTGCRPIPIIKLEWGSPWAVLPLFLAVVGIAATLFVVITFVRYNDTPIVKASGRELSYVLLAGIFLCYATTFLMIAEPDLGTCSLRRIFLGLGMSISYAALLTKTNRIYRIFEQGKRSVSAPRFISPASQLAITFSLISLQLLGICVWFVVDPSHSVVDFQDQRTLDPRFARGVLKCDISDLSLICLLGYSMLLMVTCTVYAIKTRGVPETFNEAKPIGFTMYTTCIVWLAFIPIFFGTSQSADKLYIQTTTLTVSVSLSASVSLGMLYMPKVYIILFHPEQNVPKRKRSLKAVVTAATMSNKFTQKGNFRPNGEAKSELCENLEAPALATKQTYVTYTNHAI

One experiment addresses T1, human mGlu4 receptor (Homo sapiens, UniProt Q14833).
T1 construct: expressed in transfected cells; host or cells: HEK-293 (monoclonal, stably transfected)
Put plainly: Ca2+ mobilization in vitro assay on recombinant human mGlu4 expressed in HEK293 cells. Type of experiment: cell-based. The note with it: HEK-293 cells stably expressing human mGlu4; L-AP4 added at EC20; Fluo-4 fluorescence; read-out: EC50 (uM) mGlu4 PAM. The protocol: Determination of EC50 Values Using a Ca2+ Mobilization In Vitro Assay on Recombinant Human mGlu4 Expressed in HEK293 Cells:
A monoclonal HEK-293 cell line stably transfected with a cDNA encoding for the human mGlu4 receptor was generated; for the work with mGlu4 Positive Allosteric Modulators (PAMs), a cell line with low receptor expression levels and low constitutive receptor activity was selected to allow the differentiation of agonistic versus PAM activity. Cells were cultured according to standard protocols (Freshney, 2000) in Dulbecco's Modified Eagle Medium with high glucose supplemented with 1 mM glutamine, 10% (vol/vol) heat-inactivated bovine calf serum, Penicillin/Streptomycin, 50 μg/ml hygromycin and 15 μg/ml blasticidin (all cell culture reagents and antibiotics from Invitrogen, Basel, Switzerland).
About 24 hrs before an experiment, 5×10^4 cells/well were seeded in poly-D-lysine coated, black/clear-bottomed 96-well plates. The cells were loaded with 2.5 μM Fluo-4 AM in loading buffer (1×HBSS, 20 mM HEPES) for 1 hr at 37° C. and washed five times with loading buffer. The cells were transferred into a Functional Drug Screening System 7000 (Hamamatsu, Paris, France), and 11 half logarithmic serial dilutions of test compound at 37° C. were added and the cells were incubated for 10-30 min. with on-line recording of fluorescence. Following this pre-incubation step, the agonist (2S)-2-amino-4-phosphonobutanoic acid (L-AP4) was added to the cells at a concentration corresponding to EC20 with on-line recording of fluorescence; in order to account for day-to-day variations in the responsiveness of cells, the EC20 of L-AP4 was determined immediately ahead of each experiment by recording of a full dose-response curve of L-AP4.
Responses were measured as peak increase in fluorescence minus basal (i.e. fluorescence without addition of L-AP4), normalized to the maximal stimulatory effect obtained with saturating concentrations of L-AP4. Graphs were plotted with the % maximal stimulatory using XLfit, a curve fitting program that iteratively plots the data using Levenburg Marquardt algorithm. The single site competition analysis equation used was y=A+((B−A)/(1+((x/C)D))), where y is the % maximal stimulatory effect, A is the minimum y, B is the maximum y, C is the EC50, x is the log 10 of the concentration of the competing compound and D is the slope of the curve (the Hill Coefficient). From these curves the EC50 (drug concentration at which 50% of the maximal receptor activation was achieved), the Hill coefficient as well as the maximal response in % of the maximal stimulatory effect obtained with saturating concentrations of L-AP4 were calculated (see Fig. 1).
A depression of the signal observed after addition of the EC20 concentration of L-AP4 was indicative of an inhibitory activity of the test compound.
For orientation: A change in cytosolic calcium serves as a functional read-out for many receptors and channels.
In the case of `Cn1cc(-c2cnc3n2C2(CC2)C(=O)N3c2c(F)cc(C#Cc3cccnc3)cc2F)cn1` [Example 37, 1′-(2,6-difluoro-4-(pyridin-3-ylethynyl)phenyl)-5′-(1-methyl-1H-pyrazol-4-yl)spiro[cyclopropane-1,3′-imidazo[1,2-a]imidazol]-2′(1′H)-one], the EC50 was found to be 0.229 µM.

Turning to `O=C1N(c2c(F)cc(C#Cc3ccccc3)cc2F)c2ncc(-c3cncnc3)n2C12CC2` [Example 38, 3-[2,6-Difluoro-4-(2-phenylethynyl)phenyl]-6-(pyrimidin-5-yl)-2,3-dihydrospiro[[1,3]diazolo[1,2-a]imidazole-1,1′-cyclopropane]-2-one], the EC50 was found to be 0.331 µM.

For `O=C1N(c2c(F)cc(C#Cc3cccnc3)cc2F)c2ncc(-c3cccnc3)n2C12CC2` [Example 39, 1′-(2,6-difluoro-4-(pyridin-3-ylethynyl)phenyl)-5′-(pyridin-3-yl)spiro[cyclopropane-1,3′-imidazo[1,2-a]imidazol]-2′(1′H)-one], the EC50 was determined as 0.566 µM.

As to `CC(F)(F)c1ccc(-c2cc(F)c(N3C(=O)C4(CC4)n4c(-c5cc[nH]n5)cnc43)c(F)c2)cc1` [Example 40, 1′-(4′-(1,1-difluoroethyl)-3,5-difluoro-[1,1′-biphenyl]-4-yl)-5′-(1H-pyrazol-3-yl)spiro[cyclopropane-1,3′-imidazo[1,2-a]imidazol]-2′(1′H)-one], the EC50 amounted to 0.206 µM.

Consider `O=C1N(c2c(F)cc(C#Cc3ccccc3)cc2F)c2ncc(-c3cn[nH]c3)n2C12CC2` [Example 41, 3-[2,6-Difluoro-4-(2-phenylethynyl)phenyl]-6-(1H-pyrazol-4-yl)-2,3-dihydrospiro[[1,3]diazolo[1,2-a]imidazole-1,1′-cyclopropane]-2-one], for which the EC50 stood at 0.238 µM.

Take `O=C1N(c2c(F)cc(N3CCN(CC(F)(F)F)CC3)cc2F)c2ncc(-c3cc[nH]n3)n2C12CC2` [Example 42, 7′-[2,6-difluoro-4-[4-(2,2,2-trifluoroethyl)piperazin-1-yl]phenyl]-3′-(1H-pyrazol-3-yl)spiro[cyclopropane-1,5′-imidazo[1,2-a]imidazole]-6′-one]: the concentration for a half-maximal effect (EC50) came out at 0.417 µM.

With `O=C(Nc1cc(F)c(N2C(=O)C3(CC3)n3c(-c4cc[nH]n4)cnc32)c(F)c1)c1ccccn1` [Example 43, N-[3,5-difluoro-4-[6′-oxo-3′-(1H-pyrazol-3-yl)spiro[cyclopropane-1,5′-imidazo[1,2-a]imidazole]-7′-yl]phenyl]pyridine-2-carboxamide], the EC50 was 0.015 µM.

As for `Cn1nccc1-c1cnc2n1C1(CC1)C(=O)N2c1c(F)cc(C#Cc2ccccc2)cc1F` [Example 44, 7′-[2,6-difluoro-4-(2-phenylethynyl)phenyl]-3′-(2-methylpyrazol-3-yl)spiro[cyclopropane-1,5′-imidazo[1,2-a]imidazole]-6′-one], the EC50 came to 0.422 µM.

Consider `Cn1ccc(-c2cnc3n2C2(CC2)C(=O)N3c2c(F)cc(-c3ccc(OC(F)F)cc3)cc2F)n1` [Example 45, 7′-[4-[4-(difluoromethoxy)phenyl]-2,6-difluoro-phenyl]-3′-(1-methylpyrazol-3-yl)spiro[cyclopropane-1,5′-imidazo[1,2-a]imidazole]-6′-one], for which the 50% effective concentration (EC50) stood at 0.621 µM.

As for `Cn1nccc1-c1cnc2n1C1(CC1)C(=O)N2c1c(F)cc(C#Cc2cccnc2)cc1F` [Example 46, 7′-[2,6-difluoro-4-[2-(3-pyridyl)ethynyl]phenyl]-3′-(2-methylpyrazol-3-yl)spiro[cyclopropane-1,5′-imidazo[1,2-a]imidazole]-6′-one], the 50% effective concentration (EC50) worked out at 0.673 µM.

As for `Cc1cnc2n1C1(CC1)C(=O)N2c1c(F)cc(C#Cc2ccccc2)cc1F` [Example 47, 3-[2,6-Difluoro-4-(2-phenylethynyl)phenyl]-6-methyl-2,3-dihydrospiro[[1,3]diazolo[1,2-a]imidazole-1,1′-cyclopropane]-2-one], the EC50 was found to be 0.181 µM.

On to `Cc1cnc2n1C1(CC1)C(=O)N2c1c(F)cc(NC(=O)c2ccccn2)cc1F` [Example 48, N-[3,5-difluoro-4-(3′-methyl-6′-oxo-spiro[cyclopropane-1,5′-imidazo[1,2-a]imidazole]-7′-yl)phenyl]pyridine-2-carboxamide], for which the EC50 came to 0.377 µM.

With `Cc1cnc2n1C1(CC1)C(=O)N2c1c(F)cc(C#Cc2cccnc2)cc1F` [Example 49, 7′-[2,6-difluoro-4-[2-(3-pyridyl)ethynyl]phenyl]-3′-methyl-spiro[cyclopropane-1,5′-imidazo[1,2-a]imidazole]-6′-one], the EC50 stood at 0.829 µM.

Turning to `O=C1N(c2c(F)cc(C#Cc3ccccc3)cc2F)c2ncc(C3(O)COC3)n2C12CC2` [Example 50, 7′-[2,6-difluoro-4-(2-phenylethynyl)phenyl]-3′-(3-hydroxyoxetan-3-yl)spiro[cyclopropane-1,5′-imidazo[1,2-a]imidazole]-6′-one], the EC50 amounted to 0.322 µM.

In the case of `O=C(Nc1cc(F)c(N2C(=O)C3(CC3)n3c(C4(O)COC4)cnc32)c(F)c1)c1ccccn1` [Example 51, N-[3,5-difluoro-4-[3′-(3-hydroxyoxetan-3-yl)-6′-oxo-spiro[cyclopropane-1,5′-imidazo[1,2-a]imidazole]-7′-yl]phenyl]pyridine-2-carboxamide], the EC50 is 0.363 µM.

For the compound `CC(C)(C)c1cnn(-c2cc(F)c(N3C(=O)C4(CC4)n4c(C5(O)COC5)cnc43)c(F)c2)c1` [Example 52, 7′-[4-(4-tert-butylpyrazol-1-yl)-2,6-difluoro-phenyl]-3′-(3-hydroxyoxetan-3-yl)spiro[cyclopropane-1,5′-imidazo[1,2-a]imidazole]-6′-one], the EC50 was 0.905 µM.

`CS(=O)(=O)c1cnc2n1C1(CC1)C(=O)N2c1c(F)cc(C#Cc2ccccc2)cc1F` [Example 53, 3′-[2,6-Difluoro-4-(2-phenylethynyl)phenyl]-6′-methanesulfonyl-2′,3′-dihydrospiro[cyclopropane-1,1′-imidazo[1,2-a][1,3]diazole]-2′-one]: the concentration for a half-maximal effect (EC50) was found to be 0.69 µM.

`O=C1CCN1c1cnc2n1C1(CC1)C(=O)N2c1c(F)cc(C#Cc2cccnc2)cc1F` [Example 54, 7′-[2,6-difluoro-4-[2-(3-pyridyl)ethynyl]phenyl]-3′-(2-oxoazetidin-1-yl)spiro[cyclopropane-1,5′-imidazo[1,2-a]imidazole]-6′-one]: the concentration for a half-maximal effect (EC50) stood at 0.808 µM.

`O=C1N(c2c(F)cc(C#Cc3ccccc3)cc2F)c2ncc(CO)n2C12CC2` [Example 55, 7′-[2,6-difluoro-4-(2-phenylethynyl)phenyl]-3′-(hydroxymethyl)spiro[cyclopropane-1,5′-imidazo[1,2-a]imidazole]-6′-one]: the concentration for a half-maximal effect (EC50) is 0.294 µM.

Regarding `O=C(Nc1cc(F)c(N2C(=O)C3(CC3)n3c(CO)cnc32)c(F)c1)c1ccccn1` [Example 56, N-[3,5-difluoro-4-[3′-(hydroxymethyl)-6′-oxo-spiro[cyclopropane-1,5′-imidazo[1,2-a]imidazole]-7′-yl]phenyl]pyridine-2-carboxamide], the half-maximal effective concentration (EC50) is 0.834 µM.

With `CC(O)c1cnc2n1C1(CC1)C(=O)N2c1c(F)cc(NC(=O)c2ccccn2)cc1F` (stereo not shown) [Example 57, N-[3,5-difluoro-4-[3′-(1-hydroxyethyl)-6′-oxo-spiro[cyclopropane-1,5′-imidazo[1,2-a]imidazole]-7′-yl]phenyl]pyridine-2-carboxamide], the 50% effective concentration (EC50) was 0.572 µM.

Regarding `CC(O)c1cnc2n1C1(CC1)C(=O)N2c1c(F)cc(-n2cc(C(C)(C)C)cn2)cc1F` (stereo not shown) [Example 58, 7′-[4-(4-tert-butylpyrazol-1-yl)-2,6-difluoro-phenyl]-3′-(1-hydroxyethyl)spiro[cyclopropane-1,5′-imidazo[1,2-a]imidazole]-6′-one], the half-maximal effective concentration (EC50) is 0.842 µM.

For the compound `CC(O)c1cnc2n1C1(CC1)C(=O)N2c1c(F)cc(C#Cc2ccccc2)cc1F` (stereo not shown) [Example 59, 7′-[2,6-difluoro-4-(2-phenylethynyl)phenyl]-3′-(1-hydroxyethyl)spiro[cyclopropane-1,5′-imidazo[1,2-a]imidazole]-6′-one], the EC50 is 0.824 µM.

Another experiment concerns rodent.
Assay: not given
The note with it: 6-OHDA rodent model of PD; cited from earlier work.
Consider `N[C@@H](CCP(=O)(O)O)C(=O)O` [L-AP4, (2S)-2-amino-4-phosphonobutanoic acid], for which the neuroprotection entry is recorded as “neuroprotective effects”.

The subject of another experiment is mice.
Assay: not given
As to conditions: mice treated with MPTP; cited from earlier work.
In the case of `O=C(Nc1ccccc1)C12CC1/C(=N\O)c1ccccc1O2` (single isomer, unassigned; (-)) [(−)-PHCCC], the nigrostriatal degeneration result is on record as “reduced nigrostriatal degeneration”.
